Data published in PMC12132378 (bioRxiv, 2025).

Target: T1, DTX2 (Homo sapiens, UniProt Q86UW9)
T1 sequence (Q86UW9 1-622): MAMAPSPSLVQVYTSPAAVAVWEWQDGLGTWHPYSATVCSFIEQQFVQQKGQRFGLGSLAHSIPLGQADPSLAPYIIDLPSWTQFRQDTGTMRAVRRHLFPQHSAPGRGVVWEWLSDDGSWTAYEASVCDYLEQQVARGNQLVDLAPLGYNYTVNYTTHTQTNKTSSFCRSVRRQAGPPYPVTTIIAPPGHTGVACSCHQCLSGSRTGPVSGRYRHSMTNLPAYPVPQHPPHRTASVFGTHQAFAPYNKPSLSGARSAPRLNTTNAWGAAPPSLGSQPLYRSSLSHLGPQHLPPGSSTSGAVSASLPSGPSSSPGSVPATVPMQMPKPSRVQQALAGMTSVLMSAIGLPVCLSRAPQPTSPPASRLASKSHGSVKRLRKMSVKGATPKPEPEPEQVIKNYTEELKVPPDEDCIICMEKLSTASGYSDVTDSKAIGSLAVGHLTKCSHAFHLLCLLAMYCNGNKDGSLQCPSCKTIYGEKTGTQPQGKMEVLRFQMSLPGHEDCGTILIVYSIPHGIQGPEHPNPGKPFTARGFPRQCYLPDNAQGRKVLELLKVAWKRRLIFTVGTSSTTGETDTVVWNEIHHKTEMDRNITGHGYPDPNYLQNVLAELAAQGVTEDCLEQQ
Assay: ubiquitylation of OP-ADPr, ion exchange and intact mass spectrometry
Format: biochemical
Details: co-substrate purified E2~Ub conjugate; pH 7.4, 37 °C, 150 mM NaCl

`C#CCO[C@H]1O[C@H](COP(=O)(O)OP(=O)(O)OC[C@H]2O[C@@H](n3cnc4c(N)ncnc43)[C@H](O)[C@@H]2O)[C@@H](O)[C@H]1O` [compound 8, OP-ADPr] was tested, and the “ubiquitylation of OP-ADPr, ion exchange and intact mass spectrometry” value was “We next coupled Ub to OP-ADPr using DTX2 to generate an ester-linked Ub-OP-ADPr”.
